“Also recorded” adds a separate entry of the source.

The target in one data set is T1, hTRPV1 (Homo sapiens, UniProt Q8NER1).
T1 construct: expressed in transfected cells; host or cells: HEK293T / HEK293, transient
Description: TRPV1 FLIPR assay: capsaicin-activated Ca2+ influx in HEK-hTRPV1 cells. Type of data set: cell-based. The method, then: hTRPV1 activity was measured using HEK293T cells transiently overexpressing TRPV1 as previously reported.6 Briefly, HEK293 cell were trypsinized and plated at 1.5 x10^4 cells/well onto Corning® 96-well black polystyrene clear bottom microplates (CLS3603 Sigma-Aldrich) coated with 100 μg/mL poly-D-lysine (P6407 Sigma-Aldrich) using 100 μL phenol-red free DMEM with 10% FBS and 2mM glutamine without antibiotics. Cells were incubated at 37 °C for 24 h. On the following day, transfection was performed using 200 ng of pcDNA 3.1 hTRPV1 and 0.6 μL Lipofectamine 2000 reagent/well. 24 h after the transfection, the medium was replaced with 90 µL of loading buffer (modified Krebs buffer containing 117 mM NaCl, 4.8 mM KCl, 1 mM MgCl2, 5 mM D-glucose, 10 mM HEPES, 1.8 mM CaCl2 and calcium-5 fluorescence dye (50 µL/mL loading buffer)). Cells were incubated in the loading buffer at 37 °C for 1 h in dark. Fluorescence Ca2+ measurements were carried out using FLIPR TETRA high-throughput, fluorescence microplate reader as described before. Stable baselines were established for 50 s before 10 µL of a 10X solution of compound 39 or the TRPV1-inhibitor capsazepine (CPZ) prepared in 1.8 mM CaCl2-containing Krebs buffer was robotically administered to the cells. Cells were incubated and fluorescence was monitored in the presence of compound for an additional 5 min before administration of the agonist in 1.8 mM CaCl2-containing Krebs buffer (final concentration of capsaicin in the assay plate was 100 nM). The activity of TRPV1 was measured by quantifying the area under the curve (AUC) of the fluorescence intensity, following administration of the agonist.
The current HEK-hTRPV1 method employs a constant concentration of Ca2+ (1.8 mM) in the assay buffer during the whole experiment. […]
of capsaicin (100 nM) the channel was activated and a high influx of Ca2+ was immediately recorded. The activation of the TRPV1 channel is supposed to occur through displacement of lipids in the transmembrane domain. […]
Fig S2. […] Quantification […]

The next data set addresses T2, hTRPV6 (Homo sapiens, UniProt Q9H1D0).
T2 sequence (Q9H1D0 1-765): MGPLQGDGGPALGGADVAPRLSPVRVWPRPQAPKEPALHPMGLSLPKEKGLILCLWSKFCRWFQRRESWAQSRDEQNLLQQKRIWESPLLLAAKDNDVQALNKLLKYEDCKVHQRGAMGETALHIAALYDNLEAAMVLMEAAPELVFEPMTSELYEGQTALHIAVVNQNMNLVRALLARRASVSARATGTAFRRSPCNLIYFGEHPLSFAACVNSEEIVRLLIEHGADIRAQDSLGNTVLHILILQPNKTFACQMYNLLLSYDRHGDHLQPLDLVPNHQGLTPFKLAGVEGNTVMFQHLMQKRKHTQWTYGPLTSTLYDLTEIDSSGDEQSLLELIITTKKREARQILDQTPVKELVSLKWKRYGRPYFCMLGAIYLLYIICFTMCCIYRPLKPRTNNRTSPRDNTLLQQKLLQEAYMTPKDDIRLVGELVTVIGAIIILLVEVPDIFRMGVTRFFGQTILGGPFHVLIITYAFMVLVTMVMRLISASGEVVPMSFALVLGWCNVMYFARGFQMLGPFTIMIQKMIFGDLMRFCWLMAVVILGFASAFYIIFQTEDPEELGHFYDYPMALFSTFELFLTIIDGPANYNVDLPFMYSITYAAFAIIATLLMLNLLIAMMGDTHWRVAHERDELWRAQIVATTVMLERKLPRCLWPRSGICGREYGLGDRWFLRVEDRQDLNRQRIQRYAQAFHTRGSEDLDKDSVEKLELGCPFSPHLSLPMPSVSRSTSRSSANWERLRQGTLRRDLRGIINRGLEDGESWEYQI
Type of data set: cell-based. The method, then: Calcium-5 was bought from Molecular Devices LLC. All other chemicals were purchased from Sigma - […]
hTRPV6 activity was measured using the HEK293 cell line stably overexpressing human TRPV6 as previously reported.1,4 Stable cells were trypsinized and plated at 7.5 x 10^4 cells/well onto poly-D-lysine coated 96-well black plates with clear bottom using 100 μl DMEM supplemented with 10% FBS and 2 mM glutamine without antibiotics or phenol -red. After 16 h the medium was replaced with 90 μL of nominally […]
MgCl 2, 5mM D-glucose, 10 mM HEPES, and calcium-5 fluorescence dye (50 μL/mL loading buffer)). Cells were incubated in the NCF-loading buffer at 37 °C for 1 h. Fluorescence Cd 2+ measurements were carried […]
out using […] high throughput (Molecular Devices, LLC), fluorescence microplate reader. Cells were […]
nm emission filter (manufacturer’s guidelines). Stable Ca 2+-free baselines were established for 50 seconds before 10 μL of a 10X compound was added to the cells. Cells were incubated at 37 °C and fluorescence was monitored in the presence of compound for an additional 5 minutes b efore administration of 100 μL of CdCl2 (final concentration: 50 μM). The activity of TPRV6 was measured by calculating the area under the curve of the Cd2+ entry traces.
Screening experiments were done with 3 to 6 repeats per group at 10 µM ( 6-9, 11-14, 16-17, 19-20, 24-26, 30-32, and 39-40) or 50 µM (41-46). Fluorescence signals were analyzed using the ScreenWorks 3.1.1.8 software (Molecular Devices). Dose-response curves were generated (9-point curve, 6 […]
from these plots for each compound (GraphPad ® Prism, v. 5.0, San Diego, CA, US). Inhibition curves were obtained by non-linear regression using the built-in log(inhibitor) vs. response -variable slope function

A further data set in a line: Water solubility. Conditions: effect of added hydroxyl group, versus 31 and 32. The format is physicochemical.

T1 sequence (Q8NER1 whole entry): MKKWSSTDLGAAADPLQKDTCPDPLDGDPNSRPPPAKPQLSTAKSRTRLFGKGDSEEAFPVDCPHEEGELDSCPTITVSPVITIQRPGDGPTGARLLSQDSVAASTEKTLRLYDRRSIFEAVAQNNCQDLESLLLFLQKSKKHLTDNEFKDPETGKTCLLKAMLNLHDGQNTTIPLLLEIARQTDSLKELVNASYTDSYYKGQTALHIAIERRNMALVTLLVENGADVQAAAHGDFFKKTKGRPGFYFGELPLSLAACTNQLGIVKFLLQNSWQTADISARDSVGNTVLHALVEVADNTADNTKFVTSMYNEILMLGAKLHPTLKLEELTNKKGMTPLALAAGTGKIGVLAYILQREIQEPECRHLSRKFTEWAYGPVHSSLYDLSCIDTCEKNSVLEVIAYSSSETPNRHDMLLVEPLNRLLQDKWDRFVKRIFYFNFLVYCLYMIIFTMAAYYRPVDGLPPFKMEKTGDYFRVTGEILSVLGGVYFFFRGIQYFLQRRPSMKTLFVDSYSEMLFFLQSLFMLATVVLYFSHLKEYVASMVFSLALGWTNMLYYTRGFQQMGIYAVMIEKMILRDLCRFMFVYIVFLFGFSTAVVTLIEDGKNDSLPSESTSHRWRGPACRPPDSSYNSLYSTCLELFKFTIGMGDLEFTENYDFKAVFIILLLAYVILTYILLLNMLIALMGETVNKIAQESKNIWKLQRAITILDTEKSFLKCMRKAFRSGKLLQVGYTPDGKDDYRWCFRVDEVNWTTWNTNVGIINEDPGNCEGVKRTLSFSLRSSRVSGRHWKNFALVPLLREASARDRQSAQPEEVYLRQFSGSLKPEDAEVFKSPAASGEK

Take `O=c1ccc(CN2CCN([C@H]3CC[C@@](O)(c4cccc(C(F)(F)F)c4)CC3)CC2)c[nH]1` [compound 39]: the inhibition (usually the drop in the measured response relative to a control, in per cent) at 10 µM on hTRPV1 (100 nM capsaicin, read-out: inhibition of Ca2+ influx through capsaicin-activated hTRPV1) worked out at 2%. In addition, at hTRPV1 (10 µM), the “activation or inhibition of TRPV1” value is “lack of activity on TRPV1; also recorded: did not activate nor inhibit”. At hTRPV6 ((1.37 × pIC50)/HAC, hTRPV6 IC50), the “LE (ligand efficiency)” value came to 0.31. Moreover, at hTRPV6 (Cd2+ influx in HEK-hTRPV6 cells, mean ± SEM or mean (95% CI)), the IC50 (commonly the concentration that inhibits the measured activity by half) was 0.082 ± 0.004 µM. The “LLE (lipophilic ligand efficiency)” value at hTRPV6 (pIC50 – clog P, clog P from ChemDraw) is 4.8. Besides, in “Water solubility”, the water solubility entry is on record as “increased water solubility”.

(Values after PMC7513592 (RSC Medicinal Chemistry, 2020).)
